The values below come from EPA's ToxRefDB 2.

Counter-ions that a name gives are not always drawn. Some results are limits rather than exact numbers.

Data set [1] deals with rat. Particulars: Subchronic oral toxicity in rodents, fischer, Gavage/Intubation, dose end: 13 week, group: systemic, systemic / hematology / anemia / anemia - macrocytic + systemic / hematology / erythrocyte (rbc) count differential / erythrocyte (rbc) + ….
Data set [2] concerns mouse. Particulars: Subchronic oral toxicity in rodents, b6c3f1, Gavage/Intubation, dose end: 13 week, group: systemic, systemic / hematology / methemoglobin / methemoglobin + systemic / pathology microscopic / bone marrow / hemosiderosis + systemic / ….
Data set [3] deals with rat. Particulars: Prenatal developmental toxicity study; other; Inhalation; Nose-Only; dose end: 16 GD; group: maternal; systemic / in life observation / body weight / body weight gain + systemic / in life observation / food consumption / food consumption.
In data set [4] the test system is rat. Particulars: Subchronic oral toxicity in rodents, fischer, Feed, dose end: 13 week, group: systemic, systemic / pathology microscopic / liver / vacuolization.
Data set [5] has as its system rat. Particulars: Combined chronic toxicity/carcinogenicity, fischer, Oral, Feed, dose end: 103 week, group: systemic.
Data set [6] concerns mouse. Particulars: Carcinogenicity; b6c3f1; Oral; Feed; dose end: 103 week; group: systemic; systemic / in life observation / body weight / body weight.
For data set [7], the system named is rat. Conditions: Prenatal developmental toxicity study, other, Oral, Gavage/Intubation, dose end: 15 GD.
Data set [8] relates to mouse. Particulars: Combined chronic toxicity/carcinogenicity; b6c3f1; Oral; Feed; dose end: 103 week; group: systemic; systemic / in life observation / body weight / body weight.
Data set [9] has as its system mouse. Conditions: Prenatal developmental toxicity study, cd1, Oral, Gavage/Intubation, dose end: 15 GD.
In another data set the test system is dog. Conditions: Chronic toxicity; beagle; Oral; Feed; dose end: 12 month; group: systemic; systemic / in life observation / body weight / body weight + systemic / in life observation / clinical signs / inappetence + systemic / in ….
For data set [10], the system named is mouse. Particulars: Subchronic oral toxicity in rodents, b6c3f1, Feed, dose end: 13 week, group: systemic, systemic / in life observation / body weight / body weight.
Data set [11] has as its system rat. Particulars: Carcinogenicity; fischer; Oral; Feed; dose end: 103 week; group: systemic; systemic / pathology microscopic / pituitary gland / adenoma + systemic / pathology microscopic / pituitary gland / adenoma/carcinoma ….
In data set [12] the test system is mouse. Particulars: Subchronic oral toxicity in rodents, Feed, dose end: 28 day, group: systemic.
The test system of data set [13] is rat. Particulars: Combined chronic toxicity/carcinogenicity; sprague dawley; Oral; Feed; dose end: 104 week; group: systemic; systemic / pathology microscopic / lung / foam cell aggregation + systemic / hematology / erythrocyte (rbc) count differential / erythrocyte….
Data set [14] deals with rat. Particulars: Multigenerational reproductive toxicity study, sprague dawley, Oral, Feed, dose end: 2 generation.
The subject of the next data set is rabbit. Particulars: Prenatal developmental toxicity study, new zealand white, Oral, Gavage/Intubation, dose end: 18 GD, group: maternal.
The test system of data set [15] is mouse. Particulars: Subchronic oral toxicity in rodents, cd1, Feed, dose end: 13 week, group: systemic, systemic / clinical chemistry / alkaline phosphatase (alp/alk) / alkaline phosphatase (alp/alk) + systemic / pathology microscopic / liver….
The mark [16] stands for this setting: systemic / pathology microscopic / liver / fatty change.
Setting [17] is: systemic / pathology microscopic / pituitary gland / adenoma + systemic / pathology microscopic / adrenal gland / pheochromocytoma nos + ….
[18] abbreviates: group: developmental, systemic / in life observation / body weight / fetal weight.
The mark [19] stands for this setting: group: maternal, systemic / in life observation / body weight / body weight gain + systemic / in life observation / clinical signs / fur (altered appearance….
Setting [20] is: group: maternal, systemic / in life observation / body weight / dam weight + systemic / in life observation / clinical signs / abnormal respiratory sounds + ….
The mark [21] stands for this setting: systemic / pathology microscopic / liver / infiltration cellular.
Setting [22] is: group: maternal, systemic / in life observation / body weight / body weight gain.
Setting [23] is: group: offspring, developmental / offspring survival late / viability index / viability index + systemic / in life observation / body weight / offspring (pup….
Setting [24] is: group: offspring, systemic / in life observation / body weight / offspring (pup) weight.
Setting [25] is: group: parental, systemic / in life observation / body weight / body weight + systemic / in life observation / body weight / body weight gain.
[26] abbreviates: group: parental, systemic / in life observation / body weight / body weight gain.
Where [27] appears, read: reproductive / offspring survival early / live fetuses / live fetuses.

One may read the LOAEL as the lowest tested level that showed an adverse finding. Broadly, the NOAEL is the highest tested level that showed no adverse finding.

For `Nc1cccc(Cl)c1` [3-Chloroaniline], in the data set with rat [1], the LEL is 10 mg/kg/day, the lowest-observed-adverse-effect level (LOAEL) was found to be 20 mg/kg/day, the NEL was less than 10 mg/kg/day and the NOAEL was 10 mg/kg/day. In the data set on mouse [2], the LEL is 10 mg/kg/day, the LOAEL was determined as 40 mg/kg/day, the NEL is less than 10 mg/kg/day and the no-observed-adverse-effect level (NOAEL) came to 20 mg/kg/day.
On to `COS(=O)(=O)OC` [Dimethyl sulfate], for which, in the data set with rat [3], the LEL was determined as 0.7 ppm, the lowest observed adverse effect level (LOAEL) was greater than 1.5 ppm, the NEL turned out to be 0.1 ppm and the NOAEL was no less than 1.5 ppm.
Consider `CN(C)[C@@H]1C(=O)C(C(N)=O)=C(O)[C@@]2(O)C(=O)C3=C(O)c4c(O)cccc4[C@@](C)(O)[C@H]3[C@H](O)[C@@H]12.Cl` [Oxytetracycline hydrochloride], for which the LEL in the data set on rat [4] came out at 155 mg/kg/day; with rat [5] (setting [16]) it was 1000 mg/kg/day; with mouse [6], 1370 mg/kg/day; with rat [7] (setting [18]), 1200 mg/kg/day; with rat [7] (setting [19]), 1200 mg/kg/day; with mouse [8], 1400 mg/kg/day. In addition, the LEL with mouse [9] (setting [18]) stood at 1320 mg/kg/day; with mouse [9] (group: maternal, systemic / in life observation / body weight / dam weight), 1670 mg/kg/day; with dog, 125 mg/kg/day; in the data set with mouse [10], 3750 mg/kg/day; in the data set with rat [11], 1250 mg/kg/day. Further, the LOAEL with rat [4] is greater than 2500 mg/kg/day; with rat [5] (setting [17]), greater than 2000 mg/kg/day; in the data set on mouse [6] it was greater than 1370 mg/kg/day; in the data set with rat [7] (setting [18]), 1200 mg/kg/day; with rat [7] (setting [19]) it was greater than 1500 mg/kg/day; in the data set with mouse [8], greater than 1400 mg/kg/day. The lowest-observed-adverse-effect level (LOAEL) in the data set with mouse [9] (setting [18]) is greater than 2100 mg/kg/day; with mouse [9] (setting [20]) it was greater than 2100 mg/kg/day; in the data set on dog, 125 mg/kg/day; in the data set with mouse [10], 7500 mg/kg/day; with rat [11], greater than 2500 mg/kg/day. For the same compound, the NEL was less than 155 mg/kg/day with rat [4]; less than 1000 mg/kg/day in the data set with rat [5] (setting [16]); 663 mg/kg/day in the data set on mouse [6]; less than 1200 mg/kg/day with rat [7] (setting [18]); less than 1200 mg/kg/day in the data set on rat [7] (setting [19]); 650 mg/kg/day with mouse [8]. Besides, the NEL in the data set with mouse [9] (setting [18]) is less than 1320 mg/kg/day; in the data set with mouse [9] (setting [20]), 1320 mg/kg/day; in the data set on dog, 50 mg/kg/day; in the data set on mouse [10], 1880 mg/kg/day; in the data set on rat [11], less than 1250 mg/kg/day. Also, the no-observed-adverse-effect level (NOAEL) was no less than 2500 mg/kg/day in the data set on rat [4]; no less than 2000 mg/kg/day with rat [5] (setting [17]); no less than 1370 mg/kg/day in the data set with mouse [6]; less than 1200 mg/kg/day in the data set with rat [7] (setting [18]); no less than 1500 mg/kg/day in the data set with rat [7] (setting [19]); no less than 1400 mg/kg/day in the data set with mouse [8]. In addition, the NOAEL is no less than 2100 mg/kg/day with mouse [9] (setting [18]); no less than 2100 mg/kg/day with mouse [9] (setting [20]); 50 mg/kg/day in the data set with dog; 3750 mg/kg/day in the data set with mouse [10]; no less than 2500 mg/kg/day in the data set on rat [11].
With `Oc1cc(Cl)ccc1Oc1ccc(Cl)cc1Cl` [Triclosan], the LOAEL with mouse [12] (systemic / clinical chemistry / alkaline phosphatase (alp/alk) / alkaline phosphatase (alp/alk) + systemic / clinical chemistry / alanine …) is 136 mg/kg/day; in the data set on rat [13], 15 mg/kg/day; in the data set with rat [14] (setting [22]) it was greater than 150 mg/kg/day; in the data set with rat [14] (setting [23]), 150 mg/kg/day; in the data set on rat [14] (setting [25]), 150 mg/kg/day; in the data set with rabbit (systemic / in life observation / body weight / body weight + systemic / in life observation / food consumption / food consumption), 150 mg/kg/day. Besides, the lowest observed adverse effect level (LOAEL) with mouse [15] worked out at 25 mg/kg/day. The LEL in the data set on mouse [12] (setting [21]) amounted to 6.48 mg/kg/day; in the data set with rat [13], 15 mg/kg/day; with rat [14] (setting [22]), 150 mg/kg/day; in the data set on rat [14] (setting [24]), 15 mg/kg/day; in the data set on rat [14] (setting [26]) it was 15 mg/kg/day; with rabbit (setting [27]), 15 mg/kg/day. Besides, the LEL in the data set on mouse [15] was 25 mg/kg/day. The NEL in the data set with mouse [12] (setting [21]) is less than 6.48 mg/kg/day; in the data set on rat [13], less than 15 mg/kg/day; in the data set on rat [14] (setting [22]), 50 mg/kg/day; in the data set with rat [14] (setting [24]), less than 15 mg/kg/day; with rat [14] (setting [26]), less than 15 mg/kg/day; in the data set with rabbit (setting [27]), less than 15 mg/kg/day. Also, the NEL in the data set on mouse [15] was less than 25 mg/kg/day. The no observed adverse effect level (NOAEL) with mouse [12] (systemic / pathology microscopic / liver / infiltration cellular + systemic / clinical chemistry / alkaline phosphatase (alp/alk) / alkaline…) is 6.48 mg/kg/day; in the data set on rat [13], less than 15 mg/kg/day; in the data set on rat [14] (setting [22]), no less than 150 mg/kg/day; with rat [14] (setting [23]), 50 mg/kg/day; with rat [14] (setting [25]) it was 50 mg/kg/day; in the data set on rabbit (systemic / in life observation / body weight / body weight + systemic / in life observation / food consumption / food consumption + …) it was 50 mg/kg/day. The NOAEL in the data set on mouse [15] was less than 25 mg/kg/day.
